Literature values as cited in patent US8309108B2, “Intranasal compositions” (Archimedes Development Limited, priority 2007, dated 2012).
Structures can show the parent of a compound that is named as a salt.

Settings: room temperature

CN1CCc2cccc3c2C1Cc1ccc(O)c(O)c1-3 (stereo not shown) [apomorphine hydrochloride, 6aβ-aporphine-10,11-diol]
Saturated aqueous solubility: around 20 mg/ml
